pEC50: −log10 of the molar value.
Columns and labels:
BRD4 = target: T1, BRD4 (Homo sapiens, UniProt O60885); test: Western blot degradation of BRD4 in HEK293 cells; format: cell-based; settings: HEK293 cells, 4 h, 0.1 μM to 1 nM, Fig. S2
T1 construct: BRD2, BRD3 and BRD4 protein levels were measured by western blot; endogenous in cells; host or cells: HEK293 (ATCC)
Procedure: HEK293, A549, SKOV-3, HCT116 cells (ATCC)were grown in DMEM (Gibco),and all cells were supplemented with 10% (v/v) fetal bovine serum (FBS) (Sigma), 100 mg/mL penicillin/streptomycin solution (Thermo Fisher Scientific) and maintained at 37 °C and 5% CO2 in a humidified atmosphere. All cells used were tested monthly using the Mycoalert
at 95°C. Proteins were separated by SDS–PAGE (SDS polyacrylamide gel electrophoresis) with 25–40 µg of total protein per well, transferred to 0.2-μm-pore nitrocellulose membranes (BIO-RAD), then blocked in 5%(w/v) milk in PBS and 0.5% Tween-20, and incubated overnight at 4°C with primary antibodies described in section 4.1. Secondary antibodies were added for 1h at room temperature after 3 times washing with blocking buffer. After 6 times of washing
with PBS (Thermo Fisher Scientific) and 0.5% Tween-20, Blots were detected using the Clarity Western ECL Substrate (BIO-RAD) and visualized on iBright CL 750 (Thermo Fisher Scientific) and images were analyzed using iBright Firmware 1.7.0.
4.3.1 Evaluation of the degradation capacity of PROTACs […]

[1] = test system: HEK293, A549, HCT116 and SKOV-3; test: CellTiter-Glo metabolic activity, cell line panel; format: cell-based; settings: 48 h
Procedure: (§1) 4.4 Cell viability assay on 2D cells cultures
(§2) HEK293, HCT116, A549,andSKOV-3 cells were seeded in 96-well tissue culture plates at a density of 2000-3000 cells per well in 100 µl of growth medium and incubated overnight at 37 °C with 5% CO2. The following day, the cells were treated with various concentrations of compounds or 0.05% DMSO for 48 h. After treatment, add 100 μl of Cell Titer-Glo® 2.0 Reagent (cat. no. G9243, Promega) in each well, then the 96-well plates were put on an orbital shaker for 10 min and then allow the plate to incubate at room temperature for 10-20min to stabilize the luminescent signal. Luminescence readout (Gen5 Data Analysis Software v3.08.01) was performed to record luminescence.
(§3) (1 picture or pasted object on this page, not shown here)

CRBN = target: T2, CRBN (Homo sapiens, UniProt Q96SW2); test: E3 ligase homo-degradation by western blot, CRBN; format: cell-based; settings: HEK293 cells, 4 h, 0.1, 1 and 10 μM
T2 construct: western blot analysis of the levels of CRBN and VHL E3 ligase in cell lysate; endogenous in cells; host or cells: HEK293 (ATCC)
Description: (§4) 4. Biological experiments
(§5) Primary antibodies used for western blotting included anti-human BRD2(1:2000, rabbit monoclonal, Abcam, ab139690), anti-human BRD3 (1:1000, rabbit monoclonal, Abcam, ab264420), anti-human BRD4 (E2A7X) (1:1000, rabbit monoclonal, Cell Signaling Technology, #13440), anti-human VHL (1:1000, rabbit polyclonal, Cell Signaling Technology, #68547), anti-human CRBN (D8H3S) (1:1000, rabbit polyclonal, Cell Signaling Technology, #71810), anti-human alpha Tubulin, clone B-5-1-2 (1:5000, mouse monoclonal, Merck Life Science, # 32-2500).Secondary antibodies used for western blot included: anti-mouse horseradish peroxidase-linked antibody (1:3000, sheep, GE Healthcare Life Sciences, #NA931V), and anti-rabbit horseradish peroxidase-linked antibody (1:8000, donkey, GE Healthcare Life Sciences, #NA934V). Reagent for degradation assay and compounds […]
dr. Serge Van Calenbergh, Ghent University).
4.2 Cell lines and culture
HEK293, A549, SKOV-3, HCT116 cells (ATCC)were grown in DMEM (Gibco),and all cells were supplemented with 10% (v/v) fetal bovine serum (FBS) (Sigma), […] penicillin/streptomycin solution (Thermo Fisher Scientific) and maintained at 37 °C and 5% CO2 in a humidified atmosphere. All cells used were tested monthly using the Mycoalert Mycoplasma Detection Kit (cat. no. LT07-318, Lonza) to exclude mycoplasma contamination.
4.3 Degradation assays by Western blot
General method of Western blot: Lysates were sonicated and centrifuged at 4 °C at 20000 g for 15 min, and the supernatants were transferred to new tubes. Protein concentration of cell lysates was measured using the DC Protein Assay kit (BIO-RAD) following manufacturer's instructions. Cell lysates were mixed with reducing sample buffer (0.5 M Tris-HCl (pH 6.8), 43% glycerol, 9.2% SDS, 5% 2-mercaptoethanol, 5% bromophenol blue) and boiled for 5 min at 95°C. […]
(§6) Figure S5 Homo-degradation effect in Dual-ligand PROTACs. […] Subsequently, cell lysates were prepared and the protein levels of CRBN or VHL E3 ligase were assessed by Western blotting. […]

HEK293 cells = test: CellTiter-Glo 2D metabolic activity assay, HEK293; format: cell-based; settings: Homo sapiens, 2D culture, 48 h
Procedure: Figure S5 Homo-degradation effect in Dual-ligand PROTACs. HEK293 cells were treated with all synthesized PROTACs or 2V-alkyne/2P-alkyne for 4 hours. Subsequently, cell lysates were prepared and the protein levels of CRBN or VHL E3 ligase were assessed by Western blotting. (A) Representative image of CRBN or VHL E3 ligase homo-degradation was screened for all PROTACs and commercial single-ligand PROTACs at a concentration of 0.1, 1 and 10 µM, respectively (equivalent volume of DMSO as control group). (B) Representative image of CRBN or VHL E3 ligase homo-degradation was screened for 2P-alkyne or 2V-alkyne at a concentration of 0.1, 1 and 10 µM, respectively (equivalent volume of DMSO as control group). Experiments were performed as three independent replicates.
as §1
HEK293, HCT116, A549,andSKOV-3 cells were seeded in 96-well tissue culture plates at a density of 2000-3000 cells per well in 100 µl of growth medium and incubated overnight at 37 °C with 5% CO2. The following day, the cells were treated with various concentrations of compounds or 0.05% DMSO for 48 h. […] Luminescence readout (Gen5 Data Analysis Software v3.08.01) was performed to record luminescence. […]

A549 spheroids = test: CellTiter-Glo 3D assay on spheroids; format: cell-based; settings: Homo sapiens, 72 h, read-out: EC50, spheroid metabolic activity
Procedure: 4.5 Cell viability assay on 3D cell cultures
The single cell suspension containing 2.5 ×10^4 cells/ml of A549 or 2 ×10^4 cells/ml of HCT116 were seeded into the U-shaped, 384-well ULA plates (cat. no. MS-9384UZ, S-bio), each well containing 80 μl single cell suspension. The 384-well ULA plates were sealed with Breath-Easy semipermeable tape (cat. no. BEM-1, Diversified Biotech) to prevent evaporation. The spheroids were put into incubator and then cultured at 37 °C and 10% CO2. After 48h of spheroids formation, the spheroids were treated with various concentrations of compounds or 0.05% DMSO. After 72h treatment, each spheroid in the culture medium was pipetted into white micro-96-well plates (cat. no. 236108, ThermoFisher) and an equal volume of Cell Titer-Glo 3D (cat. no. G9683, Promega) reagent was added. Luminescence readouts were the same as described above for 2D culture.

HCT116 cells = test: CellTiter-Glo 2D metabolic activity assay, HCT116; format: cell-based; settings: Homo sapiens, HCT-116, 2D culture, 48 h
Procedure: as §1, §2, §3

[2] = Parallel artificial membrane permeability assay (PAMPA); format: in vitro ADME; settings: 10 uM, pH 7.4, four hours
Procedure: 4.9 Study of membrane permeability of single-ligand and dual-ligand PROTACs Parallel artificial membrane permeability assay (PAMPA) is a non-cell based assay designed to predict passive, transcellular permeability of a test compound through a PVDF membrane filter pretreated with lipid. At a given pH a log Pe (log of effective permeability) can be determined by a UV spectrophotometer. […]
is carried out in the company of Eurofins Panlabs, 6 Research Park Dr. St. Charles, MO 63304, U.S.A. The results are attached as an excel file.
Sample preparation The test compound is prepared from a 10 mM DMSO stock solution and diluted to a single final concentration of 10 uM in donor buffer. The donor solution is placed in contact with the acceptor buffer at a single pH = 7.4 with the membrane in between and the sandwich is incubated for four hours at ambient temperature.
Reference compounds Ketoprofen, propranolol and furosemide. The reference compounds yield log Pe (10-6 cm/s) values that cover the typical range of the assay from high (Propranolol), mid (Ketoprofen) to low (Furosemide) permeability.
Analytical method UV/Vis spectrophotometer
The UV absorption is measured from 250 to 500 nm for both donor and acceptor plate.
Adjustments to the method may be made as necessary to improve detection or UV spectrum.
Data analysis The amount of compound UV absorbance is determined in the donor plate prior to starting the experiment for each compound. The UV absorbance was measured from the (1 picture or pasted object on this page, not shown here) […]
donor and acceptor plate after a four hour incubation time. The log Pe was calculated using […]
4.10 Statistical Analysis.
Data analyses were performed using GraphPad Prism 9 software. The results are presented as the mean ± standard deviation (SD) or standard error of mean (SEM). All statistical analyses were evaluated with one-way analysis of variance (ANOVAs), or unpaired Student’s t-test. The difference was considered statistically significant when P < 0.05.

A549 cells = test: CellTiter-Glo 2D metabolic activity assay, A549; format: cell-based; settings: Homo sapiens, 2D culture, 48 h
Procedure: as §1, §2, §3

VHL = target: T3, VHL (Homo sapiens, UniProt P40337); test: E3 ligase homo-degradation by western blot, VHL; format: cell-based; settings: HEK293 cells, 4 h, 1 μM and 10 μM
T3 construct: western blot analysis of the levels of CRBN and VHL E3 ligase in cell lysate; endogenous in cells; host or cells: HEK293 (ATCC)
Description: as §4, §5
dr. Serge Van Calenbergh, Ghent University). […]
General method of Western blot: Lysates were sonicated and centrifuged at 4 °C at 20000 g for 15 min, and the supernatants were transferred to new tubes. Protein concentration of cell lysates was measured using the DC Protein Assay kit (BIO-RAD) following manufacturer's instructions. […]
as §6

T2 sequence (Q96SW2 whole entry): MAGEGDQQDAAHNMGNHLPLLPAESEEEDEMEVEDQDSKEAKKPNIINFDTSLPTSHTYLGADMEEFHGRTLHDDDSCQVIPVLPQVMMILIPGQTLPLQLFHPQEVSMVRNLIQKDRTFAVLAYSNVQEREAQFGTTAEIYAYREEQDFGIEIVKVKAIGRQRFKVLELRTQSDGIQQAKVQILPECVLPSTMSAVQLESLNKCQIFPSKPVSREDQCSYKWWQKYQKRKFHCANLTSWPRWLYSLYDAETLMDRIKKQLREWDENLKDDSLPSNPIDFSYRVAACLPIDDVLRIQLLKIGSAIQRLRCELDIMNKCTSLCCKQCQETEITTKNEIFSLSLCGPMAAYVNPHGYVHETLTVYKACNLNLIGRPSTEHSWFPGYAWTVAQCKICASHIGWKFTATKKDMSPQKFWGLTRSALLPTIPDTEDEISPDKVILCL
T3 sequence (P40337 whole entry): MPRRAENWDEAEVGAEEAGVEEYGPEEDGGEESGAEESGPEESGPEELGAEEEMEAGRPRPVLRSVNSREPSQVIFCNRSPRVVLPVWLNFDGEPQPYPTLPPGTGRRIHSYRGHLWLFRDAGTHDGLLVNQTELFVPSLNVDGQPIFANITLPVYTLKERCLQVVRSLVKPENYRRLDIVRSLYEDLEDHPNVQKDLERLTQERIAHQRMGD

| Structure (SMILES) | protein degradation potency, controls with similar linker length (BRD4) | metabolic inhibition, comparison [1] | CRBN level (homo-degradation) (CRBN) | further results |
| --- | --- | --- | --- | --- |
| Cc1ncsc1-c1ccc(C(C)NC(=O)C2CC(O)CN2C(=O)C(NC(=O)CCc2cn(CCOCCOCCOCCOCC(=O)NC(CC(=O)NCCOCCOCCNC(=O)CC3N=C(c4ccc(Cl)cc4)c4c(sc(C)c4C)-n4c(C)nnc43)C(=O)NCCOCCOCCNC(=O)CC3N=C(c4ccc(Cl)cc4)c4c(sc(C)c4C)-n4c(C)nnc43)nn2)C(C)(C)C)cc1 (stereo not drawn) [2J1V] | could still potently degrade the BRD proteins | higher metabolic inhibition compared to single-ligand PROTACs |  |  |
| Cc1sc2c(c1C)C(c1ccc(Cl)cc1)=N[C@@H](CC(=O)NCCOCCOCCNC(=O)C[C@H](NC(=O)COCCOCCOCCOCCn1cc(CNc3cccc4c3C(=O)N(C3CCC(=O)NC3=O)C4=O)nn1)C(=O)NCCOCCOCCNC(=O)C[C@@H]1N=C(c3ccc(Cl)cc3)c3c(sc(C)c3C)-n3c(C)nnc31)c1nnc(C)n1-2 (stereo partly drawn) [2J1P] | could still potently degrade the BRD proteins | higher metabolic inhibition compared to single-ligand PROTACs |  |  |
| C#CCCC(=O)N[C@@H](CC(=O)NCCOCCOCCNc1cccc2c1C(=O)N(C1CCC(=O)NC1=O)C2=O)C(=O)NCCOCCOCCNc1cccc2c1C(=O)N(C1CCC(=O)NC1=O)C2=O (stereo partly drawn) [2P-alkyne] |  |  | did not induce any degradation of CRBN |  |
| Cc1sc2c(c1C)C(c1ccc(Cl)cc1)=N[C@@H](CC(=O)NCCOCCOCCOCCn1cc(CCC(=O)N[C@@H](CC(=O)NCCOCCOCCNc3cccc4c3C(=O)N(C3CCC(=O)NC3=O)C4=O)C(=O)NCCOCCOCCNc3cccc4c3C(=O)N(C3CCC(=O)NC3=O)C4=O)nn1)c1nnc(C)n1-2 (stereo partly drawn) [1J2P] |  |  | did not induce any significant decrease of CRBN |  |
| Cc1sc2c(c1C)C(c1ccc(Cl)cc1)=NC(CC(=O)NCCCCNC(=O)COc1cccc3c1C(=O)N(C1CCC(=O)NC1=O)C3=O)c1nnc(C)n1-2 (stereo not drawn) [dBET1] |  |  |  | pEC50 (HEK293 cells): 6.05; pEC50 (A549 spheroids): 5.15; pEC50 (HCT116 cells): < 5.00; membrane permeability [2]: very limited membrane permeability; pEC50 (A549 cells): 5.70 |
| Cc1ncsc1-c1ccc(C(C)NC(=O)C2CC(O)CN2C(=O)C(NC(=O)COCCOCCNC(=O)CC(NC(=O)CCc2cn(CCOCCOCCOCCNC(=O)CC3N=C(c4ccc(Cl)cc4)c4c(sc(C)c4C)-n4c(C)nnc43)nn2)C(=O)NCCOCCOCC(=O)NC(C(=O)N2CC(O)CC2C(=O)NC(C)c2ccc(-c3scnc3C)cc2)C(C)(C)C)C(C)(C)C)cc1 (stereo not drawn) [1J2V] |  |  |  | VHL homo-degradation (VHL): did induce homo-degradation of VHL |
